From publication PMC11725774 (Cancer Research Communications, 2025) come the findings set out here.

Data set [1] has as its system Ba/F3 cells expressing various mutant forms of FLT3. The data set can be described thus: Growth inhibition of Ba/F3 cells. The settings on record: Mus musculus, BaF3; Ba/F3, various mutant forms of FLT3, range. Format: cell-based, murine. The protocol: (§1) MV-4-11 (CRL-9591), HS-5 (CRL-3611), and KG1a (CCL-246.1) cells were obtained from ATCC. MOLM-13 (ACC 554) and MOLM-14 (ACC 777) were obtained from DSMZ (Deutsche Sammlung von Mikroorganismen und Zellkulturen). MOLM-14 cells contain one WT FLT3 allele and one FLT3-ITD allele. MOLM-14 FLT3-ITD/F691 cells were prepared by transfection of MOLM-14 cells with a vector expressing the FLT3 TKD F691L mutation. MV-4-11 cells expressing NRAS^G12D were prepared by transduction with a lentiviral vector encoding the NRAS^G12D mutation. Assays using a panel of parental Ba/F3 into which an additional copy of either WT or a mutant form of FLT3 was introduced were performed at Kyinno Biotechnology Co., Ltd. All cell lines were short tandem repeat authenticated at ATCC or at DSMZ when originally obtained, and no further authentication was done after receipt of the cells in the laboratory.
(§2) Assays using Ba/F3 cells expressing WT and mutant forms of FLT3 were performed by Kyinno Biotechnology. The cells were cultured in the medium recommended by the source for each cell line. Growth inhibition assays were performed using either Cell Titer 96 Aqueous One Solution Cell Proliferation assay (Promega, # G3581) or CCK8 (Dojindo, # CK-04). […] IC50 values were determined from growth inhibition curves fitted using GraphPad Prism and a nonlinear regression model with sigmoidal dose response. […]

The subject of another data set is MOLM-13 cells. The data set can be described thus: Growth inhibition of AML cell line. Format: cell-based. The settings on record: Homo sapiens, mean ± SD. How it is done: MV-4-11 cells expressing NRAS^G12D were prepared by transduction with a lentiviral vector encoding the NRAS^G12D mutation. Assays using a panel of parental Ba/F3 into which an additional copy of either WT or a mutant form of FLT3 was introduced were performed at Kyinno Biotechnology Co., Ltd. All cell lines were short tandem repeat authenticated at ATCC or at DSMZ when originally obtained, and no further authentication was done after receipt of the cells in the laboratory.
Assays using Ba/F3 cells expressing WT and mutant forms of FLT3 were performed by Kyinno Biotechnology. The cells were cultured in the medium recommended by the source for each cell line. Growth inhibition assays were performed using either Cell Titer 96 Aqueous One Solution Cell Proliferation assay (Promega, # G3581) or CCK8 (Dojindo, # CK-04). […] IC50 values were determined from growth inhibition curves fitted using GraphPad Prism and a nonlinear regression model with sigmoidal dose response. Unless otherwise indicated, data are presented as mean ± SEM.

Data set [2] relates to AML cell lines expressing FLT3 ITD (MV-4-11, MOLM-13, and MOLM-14). Description: Growth inhibition of AML cell lines. Format: cell-based. The settings on record: Homo sapiens; range over MV-4-11, MOLM-13, MOLM-14. The protocol: as §1, §2
The next data set deals with TUS/R line 3 (MOLM-14). The data set can be described thus: Growth inhibition of TUS-resistant subline. Format: cell-based, human. The settings on record: Homo sapiens.
Data set [3] is described as follows: Pharmacokinetics and tissue distribution in mice. Format: in vivo.
The next data set in a line: Pharmacokinetics in dog. Format: in vivo.
The next data set in a line: Plasma protein binding. Format: in vitro ADME. The settings on record: mouse, rat, dog, and human plasma.
Data set [4] has as its system MOLM-13 cells inoculated orthotopically. The data set can be described thus: Orthotopic AML xenograft survival. Format: in vivo, NOD/SCID mice. The settings on record: oral TUS 30 mg/kg every day; vehicle 37 days. The protocol:
(§3) For subcutaneous inoculation, MV-4-11 and MOLM-14 FLT3-ITD/F691L cells were mixed with BD Matrigel Matrix (1:0.5 ratio), and 2 to 5 × 10^6 cells in 0.15 mL were inoculated subcutaneously in NOD/SCID mice. Tumor size was assessed using a Vernier caliper 2 to 3 times weekly and volume was calculated using the formula for an ellipsoid sphere. For orthotopic inoculation, MOLM-14-Luc/GFP cells (2 × 10^6 cells in 0.03 mL PBS) or MV-4-11-Luc and MOLM-13-Luc cells (1 × 10^6 cells in 50 μL Hank’s balanced salt solution) were injected into the left tibia of NOD/SCID mice. Tumor growth was monitored weekly by bioluminescence imaging using an IVIS Lumina Series III In vivo imaging system (PerkinElmer Inc.). The Institutional Animal Care and Use Committee of the Hanmi Research Center approved the animal study protocol.
(§4) For both subcutaneous and bone marrow orthotopic models, after confirming tumor formation by palpation or bioluminescence imaging, mice were randomly assigned into experimental groups.
(§5) A P value less than 0.05 was considered statistically significant.

The test system of data set [5] is MOLM-14 cells inoculated orthotopically. The data set can be described thus: Orthotopic AML xenograft survival. Format: in vivo, NOD/SCID mice. The settings on record: oral TUS 30 mg/kg every day; vehicle 17 days. The protocol:
as §3, §4, §5

The subject of data set [6] is MV-4-11 cells inoculated orthotopically. Description: Orthotopic AML xenograft survival. Format: in vivo, NOD/SCID mice. The settings on record: oral TUS 30 mg/kg every day; vehicle 42 days. How it is done:
as §3, §4, §5

The test system of data set [7] is BIM in parental MOLM-14 cells. The data set can be described thus: Western blot of apoptotic proteins. The settings on record: 75 nmol/L TUS, 48-hour exposure.
The mark [8] stands for this setting: mouse, plasma, mice, oral doses of 1, 3, 10, and 30 mg/kg.

Consider `Cc1ccc2c(-c3nc(Nc4cc(CN5C[C@@H](C)N[C@@H](C)C5)cc(C5CC5)c4)ncc3Cl)c[nH]c2c1` [TUS, Tuspetinib], for which the GI50 in [1] is 2.5 to 56 nM; in the data set on MOLM-13 cells, 5.2 ± 0.9 nM; in data set [2] it was 1.3 to 5.2 nM; with TUS/R line 3 (MOLM-14) (MOLM-14, read-out: GI50 (nM) TUS/R line 3, mean ± SEM (Supplementary Table 6)), 108 ± 24 nM. The IC50 in the data set on TUS/R line 3 (MOLM-14) (MOLM-14, read-out: IC50 (nmol/L), Mean ± SEM, TUS/R line 3) is 108 ± 24 nmol/L. For the same compound, the “dose proportionality of systemic exposure” value in data set [3] (mice, oral 1 to 30 mg/kg) is “greater than dose proportional”. In data set [3] (mouse, plasma, male mice, single intravenous dose of 3 mg/kg), the clearance (in general, a measure of how efficiently the substance is removed, as volume per time) is 5 mL/min/kg. Also, the Vd in [3] (mouse, plasma, male mice, single intravenous dose of 3 mg/kg, read-out: Vss) worked out at 2.4 L/kg. In data set [3] (mouse, plasma, male mice, single intravenous dose of 3 mg/kg, read-out: terminal plasma half-life (converted)), the half-life – broadly, the time needed for the level to fall by half in the phase considered – is 5.5 h. The Tmax (usually the time from dosing to the highest level) in [3] (setting [8]) is 1 to 4 h. The bioavailability – broadly, dose-corrected exposure relative to a reference, in per cent – was 21.4 to 47.2% in [3] (setting [8]) and 99% in the data set “Pharmacokinetics in dog” (in vivo, oral). Also, the “dose proportionality of AUC” value in “Pharmacokinetics in dog” is on record as “linearly proportional to dose”. The Plasma protein binding result in the data set “Plasma protein binding” was “high”. For the same compound, the median survival was 75 days in data set [4], 65 days in data set [5] and 147 days in data set [6]. Besides, the “increase of BIM” value in [7] is recorded as 10 fold.
